From patent publication US9834542B2, “LXR modulators” (BRISTOL-MYERS SQUIBB COMPANY, priority 2013, dated 2017)

Biological target: T1, LXRβ (Homo sapiens, UniProt P55055)
T1 construct: Co-transfection expression plasmids, comprising full-length LXRα (pCMX-h LXRα[…] or LXRβ (pCMX-hLXRβ)); expressed in transfected cells; host or cells: CV-1 African Green Monkey Kidney Cells
T1 sequence (P55055 1-460): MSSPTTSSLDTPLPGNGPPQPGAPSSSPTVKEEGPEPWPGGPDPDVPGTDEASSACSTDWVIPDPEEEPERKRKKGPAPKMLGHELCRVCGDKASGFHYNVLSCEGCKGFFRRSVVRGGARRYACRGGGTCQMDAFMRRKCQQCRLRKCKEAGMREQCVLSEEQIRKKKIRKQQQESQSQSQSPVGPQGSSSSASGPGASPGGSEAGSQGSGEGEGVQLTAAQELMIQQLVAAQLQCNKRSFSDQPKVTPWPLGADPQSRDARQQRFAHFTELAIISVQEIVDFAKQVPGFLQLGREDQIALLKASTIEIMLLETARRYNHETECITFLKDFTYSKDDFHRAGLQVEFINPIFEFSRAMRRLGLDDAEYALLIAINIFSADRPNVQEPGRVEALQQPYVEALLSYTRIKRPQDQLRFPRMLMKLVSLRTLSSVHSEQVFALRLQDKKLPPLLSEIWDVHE
T1 sequence (P19793 1-462 partner): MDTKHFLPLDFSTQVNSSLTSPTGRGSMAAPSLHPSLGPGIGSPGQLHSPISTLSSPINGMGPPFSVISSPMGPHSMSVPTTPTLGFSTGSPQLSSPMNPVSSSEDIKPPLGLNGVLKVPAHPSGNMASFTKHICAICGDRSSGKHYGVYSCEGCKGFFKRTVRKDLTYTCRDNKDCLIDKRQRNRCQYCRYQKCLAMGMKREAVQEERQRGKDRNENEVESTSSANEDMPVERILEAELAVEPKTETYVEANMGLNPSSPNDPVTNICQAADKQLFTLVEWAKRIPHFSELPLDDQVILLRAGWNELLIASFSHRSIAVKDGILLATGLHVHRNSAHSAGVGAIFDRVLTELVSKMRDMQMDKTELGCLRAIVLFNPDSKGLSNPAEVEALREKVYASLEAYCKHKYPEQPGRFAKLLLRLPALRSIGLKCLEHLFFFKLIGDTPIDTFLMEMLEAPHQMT
Assay: Co-transfection assay (LXRE luciferase reporter), LXRβ
Type: cell-based
Conditions: for EC50: CV-1 cells transfected with pCMX-hLXRβ and LXREx1-Tk-Luciferase, 20 hours incubation; for Emax: LXRβ co-transfection, relative to high control 1-(2,4-difluorobenzyl)-2-oxo-6-(4-phenoxyphenyl)-4-(trifluoromethyl)-1,2-dihydropyridine-3-carbonitrile, read-out: % Efficacy
Procedure, shortened: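 CV-1 cells transiently co-transfected with full-length human LXRβ expression plasmid, LXREx1-Tk-luciferase reporter and β-galactosidase control, then exposed to compound for 20 h at 37 °C. Luciferase luminescence read; EC50 from 11-point, ½-log dose–response fit, efficacy relative to high-control agonist maximum.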

SMILES	EC50	Emax
Cc1nc(C(F)(F)F)cn1-c1ccc(-c2cccc(S(C)(=O)=O)c2)cc1-n1nncc1-c1ccc(C(F)(F)F)cc1 [Example 62, 1-{3′-(methylsulfonyl)-4-[2-methyl-4-(trifluoromethyl)-1H-imidazol-1-yl]biphenyl-3-yl}-5-[4-(trifluoromethyl)phenyl]-1H-1,2,3-triazole]	276 nM	91%
Cc1nc(C(F)(F)F)cn1-c1ccc(-c2cc(F)c(CO)c(S(C)(=O)=O)c2)cc1-c1nc(CCO)oc1-c1ccc2c(c1)OC(F)(F)O2 [Example 530, 2-(5-(2,2-difluorobenzo[d][1,3]dioxol-5-yl)-4-(3′-fluoro-4′-(hydroxymethyl)-4-(2-methyl-4-(trifluoromethyl)-1H-imidazol-1-yl)-5′-(methylsulfonyl)-[1,1′-biphenyl]-3-yl)oxazol-2-yl)ethanol]	739 nM	71%
Cc1nc(C(F)(F)F)cn1-c1ccc(-c2cccc(S(C)(=O)=O)c2)cc1-n1nncc1-c1ccc(OC(F)(F)C(F)F)cc1 [Example 23, 1-{3′-(methylsulfonyl)-4-[2-methyl-4-(trifluoromethyl)-1H-imidazol-1-yl]biphenyl-3-yl}-5-{4-[(1,1,2,2-tetrafluoroethyl)oxy]phenyl}-1H-1,2,3-triazole]	507 nM	101%
Cc1nc(C(F)(F)F)c(Cl)n1-c1ccc(-c2cccc(S(C)(=O)=O)c2)cc1-c1cnnn1-c1ccc(Cl)cc1 [Example 243, 5-{4-[5-chloro-2-methyl-4-(trifluoromethyl)-1H-imidazol-1-yl]-3′-(methylsulfonyl)biphenyl-3-yl}-1-(4-chlorophenyl)-1H-1,2,3-triazole]	238 nM	107%
Cc1nc(C(F)(F)F)cn1-c1ccc(-c2cccc(S(C)(=O)=O)c2)cc1-n1nncc1-c1ccc(Cl)c(OC(F)(F)F)c1 [Example 35, 5-{4-chloro-3-[(trifluoromethyl)oxy]phenyl}-1-{3′-(methylsulfonyl)-4-[2-methyl-4-(trifluoromethyl)-1H-imidazol-1-yl]biphenyl-3-yl}-1H-1,2,3-triazole]	663 nM	68%
Cc1nc(C(F)(F)F)cn1-c1ccc(-c2cc(F)c(CO)c(S(C)(=O)=O)c2)cc1-c1ccnn1-c1ccc(Cl)nc1 [Example 297, (3′-(1-(6-chloropyridin-3-yl)-1H-pyrazol-5-yl)-3-fluoro-4′-(2-methyl-4-(trifluoromethyl)-1H-imidazol-1-yl)-5-(methylsulfonyl)biphenyl-4-yl)methanol]	351 nM	75%
Cc1nc(-c2cc(-c3cc(F)c(CO)c(S(C)(=O)=O)c3)ccc2-n2cc(C(F)(F)F)nc2C)c(-c2ccc3c(c2)C(O)C(F)(F)O3)o1 (stereo not drawn) [Example 487, 2,2-difluoro-5-(4-(3′-fluoro-4′-(hydroxymethyl)-4-(2-methyl-4-(trifluoromethyl)-1H-imidazol-1-yl)-5′-(methylsulfonyl)biphenyl-3-yl)-2-methyloxazol-5-yl)-2,3-dihydrobenzofuran-3-ol]	815 nM	59%
Cc1nc(-c2cc(-c3cccc(C(=O)N(C)C)c3)ccc2-n2cc(C(F)(F)F)nc2C)c(-c2ccc3c(c2)OC(F)(F)O3)o1 [Example 418, 3′-(5-(2,2-difluorobenzo[d][1,3]dioxol-5-yl)-2-methyloxazol-4-yl)-N,N-dimethyl-4′-(2-methyl-4-(trifluoromethyl)-1H-imidazol-1-yl)biphenyl-3-carboxamide]	740 nM	73%
Cc1nc(C(F)(F)F)cn1-c1ccc(-c2ccc(CO)c(S(C)(=O)=O)c2)cc1-c1nc(CCO)oc1-c1ccc(OC(F)(F)F)cc1 [Example 526]	1770 nM	74%
Cc1nc(C(F)(F)F)cn1-c1ccc(-c2cccc(S(C)(=O)=O)c2)cc1-n1nncc1-c1ccc(F)cc1 [Example 43, 5-(4-fluorophenyl)-1-{3′-(methylsulfonyl)-4-[2-methyl-4-(trifluoromethyl)-1H-imidazol-1-yl]biphenyl-3-yl}-1H-1,2,3-triazole]	1140 nM	85%
Cc1nc(C(F)(F)F)cn1-c1ccc(-c2cccc(S(C)(=O)=O)c2)cc1-n1nncc1C(F)(F)c1ccc(Cl)cc1 [Example 12, 5-[(4-chlorophenyl) (difluoro)methyl]-1-{3′-(methylsulfonyl)-4-[2-methyl-4-(trifluoromethyl)-1H-imidazol-1-yl]biphenyl-3-yl}-1H-1,2,3-triazole]	133 nM	62%
Cc1nc(C(F)(F)F)cn1-c1ccc(-c2cccc(S(C)(=O)=O)c2)cc1-n1nncc1-c1ccc(OC(F)(F)F)cc1Cl [Example 68, 5-{2-chloro-4-[(trifluoromethyl)oxy]phenyl}-1-{3′-(methylsulfonyl)-4-[2-methyl-4-(trifluoromethyl)-1H-imidazol-1-yl]biphenyl-3-yl}-1H-1,2,3-triazole]	307 nM	80%
Cc1nc(C(F)(F)F)cn1-c1ccc(-c2cccc(S(C)(=O)=O)c2)cc1-c1nc(CC(C)C)oc1-c1ccc(OC(F)(F)F)cc1 [Example 562, 2-isobutyl-4-(4-(2-methyl-4-(trifluoromethyl)-1H-imidazol-1-yl)-3′-(methylsulfonyl)-[1,1′-biphenyl]-3-yl)-5-(4-(trifluoromethoxy)phenyl)oxazole]	34 nM	77%
Cc1nc(C(F)(F)F)cn1-c1c(F)cc(-c2cc(Cl)c(CO)c(S(C)(=O)=O)c2)cc1-n1nncc1-c1ccc(OC(F)(F)F)cc1 [Example 197, [3-chloro-3′-fluoro-5-(methylsulfonyl)-4′-[2-methyl-4-(trifluoromethyl)-1H-imidazol-1-yl]-5′-(5-{4-[(trifluoromethyl)oxy]phenyl}-1H-1,2,3-triazol-1-yl)biphenyl-4-yl]methanol]	252 nM	76%
CCCc1nc(-c2cc(-c3ccc(CO)c(S(C)(=O)=O)c3)ccc2-n2cc(C(F)(F)F)nc2C)c(-c2ccc(OC(F)(F)F)cc2)o1 [Example 558, (4′-(2-methyl-4-(trifluoromethyl)-1H-imidazol-1-yl)-3-(methylsulfonyl)-3′-(2-propyl-5-(4-(trifluoromethoxy)phenyl)oxazol-4-yl)-[1,1′-biphenyl]-4-yl)methanol]	10 nM	82%
CS(=O)(=O)c1cc(-c2cc(Cl)c(-n3cnc(C(F)(F)F)c3)c(-n3nncc3-c3ccc(OC(F)(F)F)cc3)c2)cc(F)c1CO [Example 193, [3′-chloro-3-fluoro-5-(methylsulfonyl)-4′-[4-(trifluoromethyl)-1H-imidazol-1-yl]-5′-(5-{4-[(trifluoromethyl)oxy]phenyl}-1H-1,2,3-triazol-1-yl)biphenyl-4-yl]methanol]	598 nM	62%
Cc1nc(C(F)(F)F)cn1-c1ccc(-c2cccc(S(C)(=O)=O)c2)cc1-n1nncc1-c1ccc(C(F)F)cc1 [Example 5, 5-[4-(difluoromethyl)phenyl]-1-{3′-(methylsulfonyl)-4-[2-methyl-4-(trifluoromethyl)-1H-imidazol-1-yl]biphenyl-3-yl}-1H-1,2,3-triazole]	258 nM	91%
Cc1nc(-c2cc(-c3cccc(S(C)(=O)=O)c3)ccc2-n2cc(C(F)(F)F)nc2C)c(-c2ccc(OC3CCCC3)nc2)o1 [Example 410, 5-(6-(cyclopentyloxy)pyridin-3-yl)-2-methyl-4-(4-(2-methyl-4-(trifluoromethyl)-1H-imidazol-1-yl)-3′-(methylsulfonyl)biphenyl-3-yl)oxazole]	204 nM	49%
